Laboratory results taken from patent EP1208096B1, “SUBSTITUTED PYRIDAZINES AND FUSED PYRIDAZINES WITH ANGIOGENESIS INHIBITING ACTIVITY” (Bayer Corporation, priority 1999, dated 2001).
Structures can show the parent of a compound that is named as a salt.

How the values were obtained:
[1] = molecular target: T1, NIH3T3 cells expressing the full length KDR receptor (Homo sapiens, UniProt P35968); test: Cell mechanistic assay - Inhibition of 3T3 KDR phosphorylation; type: cell-based; conditions: VEGF (30 ng / ml) for 10 minutes after 30 minutes with compound; KDR phosphotyrosine ELISA
T1 construct: NIH3T3 cells expressing the full length KDR receptor; expressed in transfected cells; host or cells: NIH3T3 cells (G418 selection)
T1 sequence (P35968 20-1356): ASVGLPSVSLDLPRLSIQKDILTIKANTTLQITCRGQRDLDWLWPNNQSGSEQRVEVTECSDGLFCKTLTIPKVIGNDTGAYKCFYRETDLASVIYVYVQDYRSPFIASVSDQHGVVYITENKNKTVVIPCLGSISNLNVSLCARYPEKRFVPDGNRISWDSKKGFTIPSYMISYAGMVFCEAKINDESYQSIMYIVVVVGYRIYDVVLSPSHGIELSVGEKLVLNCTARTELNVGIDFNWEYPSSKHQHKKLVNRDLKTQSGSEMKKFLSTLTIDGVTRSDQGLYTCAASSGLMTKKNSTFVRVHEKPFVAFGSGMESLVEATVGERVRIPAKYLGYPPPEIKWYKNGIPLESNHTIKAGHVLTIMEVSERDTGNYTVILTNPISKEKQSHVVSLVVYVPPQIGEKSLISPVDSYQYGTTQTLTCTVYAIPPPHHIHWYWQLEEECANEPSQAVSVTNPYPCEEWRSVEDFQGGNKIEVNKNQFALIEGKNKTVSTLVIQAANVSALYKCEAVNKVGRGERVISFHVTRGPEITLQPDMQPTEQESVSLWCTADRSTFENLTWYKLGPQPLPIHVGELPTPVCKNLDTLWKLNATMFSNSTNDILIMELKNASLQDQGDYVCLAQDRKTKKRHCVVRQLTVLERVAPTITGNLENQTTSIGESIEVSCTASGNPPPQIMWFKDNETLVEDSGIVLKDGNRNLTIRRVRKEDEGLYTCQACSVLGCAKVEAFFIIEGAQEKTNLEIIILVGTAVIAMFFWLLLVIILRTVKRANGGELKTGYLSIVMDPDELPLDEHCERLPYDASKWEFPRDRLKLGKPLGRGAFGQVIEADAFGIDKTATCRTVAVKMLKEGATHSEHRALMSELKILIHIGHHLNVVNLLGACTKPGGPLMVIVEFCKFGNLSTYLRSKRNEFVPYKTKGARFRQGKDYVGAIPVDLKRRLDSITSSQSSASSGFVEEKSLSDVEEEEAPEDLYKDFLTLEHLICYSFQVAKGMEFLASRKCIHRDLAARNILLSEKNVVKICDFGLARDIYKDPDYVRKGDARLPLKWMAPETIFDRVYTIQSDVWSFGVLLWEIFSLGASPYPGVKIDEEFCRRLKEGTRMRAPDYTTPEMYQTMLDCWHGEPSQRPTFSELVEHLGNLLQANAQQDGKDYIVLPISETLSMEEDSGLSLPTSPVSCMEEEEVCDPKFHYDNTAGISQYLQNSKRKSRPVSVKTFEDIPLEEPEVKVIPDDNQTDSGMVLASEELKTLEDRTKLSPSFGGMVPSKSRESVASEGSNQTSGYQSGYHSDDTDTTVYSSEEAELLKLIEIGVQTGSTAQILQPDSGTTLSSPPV
Procedure: NIH3T3 cells expressing the full length KDR receptor were grown in DMEM (Life Technologies, Inc., Grand Island, NY) supplemented with 10% newborn calf serum, low glucose, 25 mM /L sodium pyruvate, pyridoxine hydrochloride and 0.2 mg/ ml of G418 (Life Technologies Inc., Grand Island, NY). The cells were maintained in collagen I-coated T75 flasks (Becton Dickinson Labware, Bedford, MA) in a humidified 5% CO2 atmosphere at 37°C.
Fifteen thousand cells were plated into each well of a collagen I-coated 96-well plate in the DMEM growth medium. Six hours later, the cells were washed and the medium was replaced with DMEM without serum. After overnight culture to quiesce the cells, the medium was replaced by Dulbecco's phosphate-buffered saline (Life Technologies Inc., Grand Island, NY) with 0.1% bovine albumin (Sigma Chemical Co., St Louis, MO). After adding various concentrations (0-300 nM) of test compounds to the cells in 1% final concentration of DMSO, the cells were incubated at room temperature for 30 minutes. The cells were then treated with VEGF (30 ng / ml) for 10 minutes at room temperature. Following VEGF stimulation, the buffer was removed and the cells were lysed by addition of 150 µl of extraction buffer (50 mM Tris, pH 7.8, supplemented with 10% glycerol, 50 mM BGP, 2 mM EDTA, 10 mM NaF, 0.5 mM NaVO4, and 0.3% TX-100) at 4°C for 30 minutes.
To assess receptor phosphorylation, 100 microliters of each cell lysate was added to the wells of an ELISA plate precoated with 300 ng of antibody C20 (Santa Cruz Biotechnology, Inc., Santa Cruz , CA). Following a 60-minute incubation, the plate was washed and bound KDR was probed for phosphotyrosine using an anti-phosphotyrosine mAb clone 4G10 (Upstate Biotechnology, Lake Placid, NY). The plate was washed and wells were incubated with anti-mouse IgG/HRP conjugate (Amersham International plc, Buckinghamshire, England) for 60 minutes. Wells were washed and phosphotyrosine was quantitated by addtion of 100 µl per well of 3,3',5,5' tetramethylbenzidine (Kirkegaard and Perry, TMB Microwell 1 Component peroxidase substrate) solution. Color development was arrested by the addition of 100 µl 1% HCl based stop solution (Kirkegaard and Perry, TMB 1 Component Stop Solution).
Optical densities (OD) were determined spectrophotometrically at 450 nm in a 96-well plate reader (SpectraMax 250, Molecular Devices). Background (no VEGF added) OD values were subtracted from all ODs and percent inhibition was calculated according to the equation: % Inhibition =((OD(VEGF control) - OD(with test compound)) X 100)/(OD(VEGF control) - OD(no VEGF added)) [formula]
IC50s were determined with a least squares analysis program using compound concentration versus percent inhibition. Compounds that have IC50 < 20 nM in this assay include those of Examples 2, 6, 7, 11, 15 and 16. Compounds that have IC50 values between 20 nM and 50 nM include those of examples 1, 4, 5, 8, 10, 12, 13 and 14. Those that have measured IC50 values > 50 nM include those of examples 9 and 21.

[2] = molecular target: T2, cytosolic kinase domain of KDR kinase (Homo sapiens, UniProt P35968); test: KDR Assay (ELISA, phosphorylation of poly(Glu4;Tyr1)); type: biochemical; conditions: 3.3 µM ATP, 60 minutes at room temperature, 30 ng KDR kinase domain
T2 construct: The cytosolic kinase domain of KDR kinase was expressed as a 6His fusion protein in Sf9 insect cells; 6His; made in house; host or cells: Sf9 insect cells
T2 sequence (P35968 834-1162 limits assumed): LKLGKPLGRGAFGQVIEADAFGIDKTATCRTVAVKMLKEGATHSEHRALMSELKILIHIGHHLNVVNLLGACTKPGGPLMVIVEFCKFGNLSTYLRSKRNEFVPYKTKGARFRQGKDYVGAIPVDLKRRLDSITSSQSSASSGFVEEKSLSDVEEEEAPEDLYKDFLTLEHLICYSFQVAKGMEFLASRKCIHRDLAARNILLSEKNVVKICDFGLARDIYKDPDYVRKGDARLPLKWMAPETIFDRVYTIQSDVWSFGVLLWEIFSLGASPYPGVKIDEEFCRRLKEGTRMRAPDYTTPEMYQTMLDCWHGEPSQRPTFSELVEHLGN
Procedure: The cytosolic kinase domain of KDR kinase was expressed as a 6His fusion protein in Sf9 insect cells. The KDR kinase domain fusion protein was purified over a Ni^++ chelating column. Ninety-six well ELISA plates were coated with 5 µg poly(Glu4;Tyr1) (Sigma Chemical Co., St Louis, MO) in 100 µl HEPES buffer (20 mM HEPES, pH 7.5, 150 mM NaCl, 0.02% Thimerosal) at 4° overnight. Before use, the plate was washed with HEPES, NaCl buffer and the plates were blocked with 1% BSA, 0.1% Tween 20 in HEPES, NaCl buffer.
Test compounds were serially diluted in 100% DMSO from 4 mM to 0.12 µM in half-log dilutions. These dilutions were further diluted twenty fold in H2O to obtain compound solutions in 5% DMSO. Following loading of the assay plate with 85 µl of assay buffer (20 mM HEPES, pH 7.5, 100 mM KCl, 10 mM MgCl2, 3 mM MnCl2, 0.05% glycerol, 0.005% Triton X-100, 1 mM -mercaptoethanol, with or without 3.3 µM ATP), 5 µl of the diluted compounds were added to a final assay volume of 100 µl. Final concentrations were between 10 µM, and 0.3 nM in 0.25% DMSO. The assay was initiated by the addition of 10µl (30 ng) of KDR kinase domain.
The assay was incubated with test compound or vehicle alone with gentle agitation at room temperature for 60 minutes. The wells were washed and phosphotyrosines (PY) were probed with an anti-phosphotyrosine (PY), mAb clone 4G10 (Upstate Biotechnology, Lake Placid, NY). PY/anti-PY complexes were detected with an anti-mouse IgG/HRP conjugate (Amersham International plc, Buckinghamshire, England). Phosphotyrosine was quantitated by incubating with 100 µl 3, 3', 5, 5' tetramethylbenzidine solution (Kirkegaard and Perry, TMB Microwell 1 Component peroxidase substrate). Color development was arrested by the addition of 100 µl 1% HCl-based stop solution (Kirkegaard and Perry, TMB I Component Stop Solution).
Optical densities were determined spectrophotometrically at 450 nm in a 96-well plate reader, SpectraMax 250 (Molecular Devices). Background (no ATP in assay) OD values were subtracted from all ODs and the percent inhibition was calculated according to the equation: % Inhibition =((OD(vehicle control) - OD(with compound)) X 100)/(OD(vehicle control) - OD(no ATP added)) [formula]
The IC50 values were determined with a least squares analysis program using compound concentration versus percent inhibition. Compounds that have IC50 < 100 nM in this assay include those of Examples 1, 2, 4, 5, 6, 7, 10, 11, 12, 13, 14, 15, 16 and 23. Compounds that have IC50 values between 100 nM and 1,000 nM include those of examples 8, 9 and 22. Those that have measured IC50 values > 1,000 nM include those of examples 3, 17, 18 and 21.

SMILES	IC50 [1]	IC50 [2]
c1ccc2c(Nc3ccc4ncsc4c3)nnc(Cc3ccncc3)c2c1 [Example 23, 1-(benzothiazol-6-ylamino)-4-(4-pyridylmethyl)phthalazine]		< 0.1 µM
CNC(=O)c1cc(Cc2nnc(Nc3ccc(Cl)cc3)c3ccccc23)ccn1 [Example 12, 4-[4-(4-Chlorophenylamino)phthalazin-1-ylmethyl]pyridin-2-yl carboxylic acid methylamide dimethanesulfonate]	0.02 to 0.05 µM	
NC(=O)c1cc(Cc2nnc(Nc3ccc(Cl)cc3)c3ccccc23)ccn1 [Example 14, 4-[4-(4-Chlorophenylamino)phthalazin-1-ylmethyl]pyridin-2-yl carboxylic acid amide dimethanesulfonate]	0.02 to 0.05 µM	
N#CC(c1ccncc1)c1nnc(Nc2ccc3c(c2)CCC3)c2ccccc12 (centres unmarked) [Example 22, 1-(indan-5-ylamino)-4-(4-pyridylcyanomethyl)phthalazine]		0.1 to 1 µM
c1ccc2c(Nc3ccc4c(c3)CCC4)nnc(Cc3ccncc3)c2c1 [Example 10, 1-(indan-5-ylamino)-4-(4-pyridylmethyl)phthalazine]	0.02 to 0.05 µM	< 0.1 µM
CC(C)c1ccc(Nc2nnc(Sc3nnc(-c4ccncc4)[nH]3)c3ccccc23)cc1 [Example 18, 1-(4-isopropylphenylamino)-4-[5-(4-pyridyl)-1H-1,2,4-triazolyl-3-ylthio]phthalazine]		> 1 µM
CNC(=O)c1cc(COc2nnc(Nc3ccc(Cl)cc3)c3ccccc23)ccn1 [Example 4, 4-[4-(4-Chlorophenylamino)phthalazin-1-yloxymethyl]pyridin-2-yl carboxylic acid methylamide]	0.02 to 0.05 µM	< 0.1 µM
c1ccc2c(Nc3ccc(Oc4ccncc4)cc3)nnc(Cc3ccncc3)c2c1 [Example 9, 1-[4-(4-pyridyloxy)phenylamino]-4-(4-pyridylmethyl)phthalazine]	> 0.05 µM	0.1 to 1 µM
NC(=O)c1cc(Cc2nnc(Nc3ccc(Cl)cc3)c3ccccc23)ccn1 [Example 13, 4-[4-(4-Chlorophenylamino)phthalazin-1-ylmethyl]pyridin2-yl carboxylic acid amide dihydrochloride]	0.02 to 0.05 µM	< 0.1 µM
Clc1ccc(Nc2nnc(Sc3nnc(-c4ccncc4)[nH]3)c3ccccc23)cc1 [Example 17, 1-(4-chlorophenylamino)-4-[5-(4-pyridyl)-1H-1,2,4-triazolyl-3-ylthio]phthalazine]		> 1 µM
Clc1ccc(Nc2nnc(OCc3cccnc3)c3ccccc23)cc1 [Example 3, 1-(4-chlorophenylamino)-4-(3-pyridylmethoxy)phthalazine]		> 1 µM

The next lines start with the values.

IC50 [1]	IC50 [2]	SMILES
0.02 to 0.05 µM	0.1 to 1 µM	Clc1ccc(Nc2nnc(Cc3ccnc(-c4ccccc4)c3)c3ccccc23)cc1 [Example 8, 1-(4-chlorophenylamino)-4-[(2-phenyl-4-pyridyl)methyl]phthalazine]
0.02 to 0.05 µM		NC(=O)c1cc(COc2nnc(Nc3ccc(Cl)cc3)c3ccccc23)ccn1 [Example 5, 4-[4-(4-Chlorophenylamino)phthalazin-1-yloxymethyl]pyridin-2-yl carboxylic acid amide]
< 0.02 µM	< 0.1 µM	NC(=O)c1cc(Cc2nnc(Nc3cccc(Br)c3)c3ccccc23)ccn1 [Example 7, 4-[4-(3-Bromophenylamino)phthalazin-1-ylmethyl]-pyridin-2-yl carboxylic acid amide]
< 0.02 µM		NC(=O)c1cc(COc2nnc(Nc3ccc(Cl)cc3)c3ccccc23)ccn1 [Example 16, 4-[4-(4-Chlorophenylamino)phthalazin-1-yloxymethyl]pyridin-2-yl carboxylic acid amide dimethanesulfonate]
< 0.02 µM	< 0.1 µM	NC(=O)c1cc(COc2nnc(Nc3ccc(Cl)cc3)c3ccccc23)ccn1 [Example 15, 4-[4-(4-Chlorophenylamino)phthalazin-1-yloxymethyl]pyridin-2-yl carboxylic acid amide dihydrochloride]
< 0.02 µM	< 0.1 µM	CNC(=O)c1cc(Cc2nnc(Nc3cccc(Br)c3)c3ccccc23)ccn1 [Example 6, 4-[4-(3-Bromophenylamino)phthalazin-1-ylmethyl]-pyridin-2-yl carboxylic acid methylamide]
< 0.02 µM		CNC(=O)c1cc(Cc2nnc(Nc3ccc(Cl)cc3)c3ccccc23)ccn1 [Example 11, 4-[4-(4-Chlorophenylamino)phthalazin-1-ylmethyl]pyridin-2-yl carboxylic acid methylamide dihydrochloride]
